# Measurements taken from US20020137929A1, “1 - (3-heterocyclylphenyl) isothiourea, -isourea, -guanidine and -amidine herbicidal agents” (Intellectual Property Department, BASF Aktiengesellschaft, priority 1998, published 2002).
# Experiments:
# [1] = test system: AMBEL (Ragweed, Common); test: Postemergence herbicidal evaluation; type: in vivo, Ambrosia artemisifolia; details: postemergence
# Method in brief: (§1)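 Two-week-old seedlings sprayed with compound in 50/50 acetone/water plus 0.5% TWEEN 20, at about 0.0156 to 0.500 kg/ha, nozzle at 40 psi. Kept in greenhouse; rated visually 4-5 weeks after treatment on a 0-9 scale versus control, repeat tests averaged.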
# [2] = test system: SETVI (Foxtail, Green); test: Preemergence herbicidal evaluation; type: in vivo, Setaria viridis; details: rated 4-5 weeks after treatment
# Method in brief: (§2)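 Seeds were mixed with potting soil and planted on about one inch of soil, then sprayed with test compound in aqueous acetone at about 0.0156 to 0.500 kg per hectare. Plants grew under standard greenhouse care and were visually rated 0-9 against untreated controls 4-5 weeks post-treatment.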
# [3] = test system: TRZAWR (Wheat, Winter, cv Riband); test: Preemergence herbicidal evaluation; type: in vivo, Triticum aestivum; details: rated 4-5 weeks after treatment
# Method in brief: as §2
# [4] = test system: SAGPY (Arrowhead (Pygmaea)); test: Preemergence weed control under flooded paddy conditions; type: in vivo, Sagittaria pygmaea; details: rated 3-4 weeks after treatment
# Method in brief: (§3)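 Seeds or propagules sown in silt loam kept flooded 1.5-3 cm; compounds in 50/50 acetone/water pipetted into flood water at about 0.0313 to 0.500 kg/ha. Greenhouse; visual 0-9 rating versus untreated control 3-4 weeks after treatment.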
# [5] = test system: CASOB (Sicklepod); test: Preemergence herbicidal evaluation; type: in vivo, Cassia obtusifolia; details: rated 4-5 weeks after treatment
# Method in brief: as §2
# [6] = test system: ORYSAT (Rice, Tebonnet); test: Preemergence herbicidal evaluation; type: in vivo, Oryza sativa, (L.) Tebonnet; details: rated 4-5 weeks after treatment
# Method in brief: as §2
# [7] = test system: CHEAL (Lambsquarters, Common); test: Preemergence herbicidal evaluation; type: in vivo, Chenopodium album; details: rate 0.2500 kg/ha; rated 4-5 weeks after treatment
# Method in brief: as §2
# [8] = test system: GLXMAW (Soybean, Williams); test: Preemergence herbicidal evaluation; type: in vivo, Glycine max, (L.) Merr. cv Williams; details: rated 4-5 weeks after treatment
# Method in brief: as §2
# [9] = test system: ABUTH (Velvetleaf); test: Postemergence herbicidal evaluation; type: in vivo, Abutilon theophrasti; details: postemergence
# Method in brief: as §1
# [10] = test system: GALAP (Galium); test: Preemergence herbicidal evaluation; type: in vivo, Galium aparine; details: rated 4-5 weeks after treatment
# Method in brief: as §2
# [11] = test system: AMBEL (Ragweed, Common); test: Preemergence herbicidal evaluation; type: in vivo, Ambrosia artemisifolia; details: rated 4-5 weeks after treatment
# Method in brief: as §2
# [12] = test system: ECHORC (Watergrass (Calif.)); test: Preemergence weed control under flooded paddy conditions; type: in vivo, Echinochloa oryzoides; details: rated 3-4 weeks after treatment
# Method in brief: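 Silt loam, seeds in top 0.5 cm; flood held 1.5-3 cm; test cpd as acetone/water 50/50 into flood water, ~0.0313-0.500 kg/ha a.i.; greenhouse 3-4 wk; visual 0-9 score vs control.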
# [13] = test system: ZEAMX (Corn, Field); test: Postemergence herbicidal evaluation; type: in vivo, Zea mays; details: postemergence
# Method in brief: as §1
# [14] = test system: IPOHE (Morningglory, Ivyleaf); test: Preemergence herbicidal evaluation; type: in vivo, Ipomoea hederacea; details: rated 4-5 weeks after treatment
# Method in brief: as §2
# [15] = test system: CYPSE (Flatsedge); test: Preemergence weed control under flooded paddy conditions; type: in vivo, Cyperus serotinus; details: 0.0313 kg/ha, rated 3-4 weeks after treatment
# Method in brief: as §3
# [16] = test system: ORYSAT (Rice, Tebonnet); test: Postemergence herbicidal evaluation; type: in vivo, Oryza sativa, (L.) Tebonnet; details: postemergence
# Method in brief: as §1
structure (smiles),measurement,setting,value
"CCOC(=O)CN1C(=O)C(CC(=O)O)SC1=Nc1cc(-n2nc(C)n(C(F)F)c2=O)c(F)cc1Cl (stereo not drawn) [Compound 112, 2-{{2-Chloro-5-[4-(difluoromethyl)-4,5-dihydro-3-methyl-5-oxo-1H-1,2,4-triazol-1-yl]-4-fluorophenyl}imino}-4-oxo-3,5-thiazolidinediacetic acid, 3-ethyl ester]",herbicidal rating AMBEL,[1]; rate 0.0158 kg/ha,5.0
same,herbicidal rating AMBEL,[1]; rate 0.0315 kg/ha,9.0
same,herbicidal rating AMBEL,[1]; rate 0.0630 kg/ha,9.0
same,Preemergence herbicidal rating SETVI,[2]; rate 0.0313 kg/ha,1.0
same,Preemergence herbicidal rating SETVI,[2]; rate 0.0625 kg/ha,0.0
same,Preemergence herbicidal rating SETVI,[2]; rate 0.1250 kg/ha,0.0
same,Preemergence herbicidal rating SETVI,[2]; rate 0.2500 kg/ha,0.0
same,Preemergence herbicidal rating TRZAWR,[3]; rate 0.0313 kg/ha,0.0
same,Preemergence herbicidal rating TRZAWR,[3]; rate 0.0625 kg/ha,0.0
same,Preemergence herbicidal rating TRZAWR,[3]; rate 0.1250 kg/ha,0.0
same,Preemergence herbicidal rating TRZAWR,[3]; rate 0.2500 kg/ha,1.0
same,SAGPY herbicidal effect rating,[4]; 0.0313 kg/ha,6.0
same,SAGPY herbicidal effect rating,[4]; 0.0625 kg/ha,7.0
same,SAGPY herbicidal effect rating,[4]; 0.1250 kg/ha,7.0
same,SAGPY herbicidal effect rating,[4]; 0.2500 kg/ha,7.0
same,Preemergence herbicidal rating CASOB,[5]; rate 0.0313 kg/ha,0.0
same,Preemergence herbicidal rating CASOB,[5]; rate 0.0625 kg/ha,0.0
same,Preemergence herbicidal rating CASOB,[5]; rate 0.1250 kg/ha,0.0
same,Preemergence herbicidal rating CASOB,[5]; rate 0.2500 kg/ha,0.0
same,Preemergence herbicidal rating ORYSAT,[6]; rate 0.0313 kg/ha,0.0
same,Preemergence herbicidal rating ORYSAT,[6]; rate 0.0625 kg/ha,0.0
same,Preemergence herbicidal rating ORYSAT,[6]; rate 0.1250 kg/ha,0.0
same,Preemergence herbicidal rating ORYSAT,[6]; rate 0.2500 kg/ha,2.0
same,Preemergence herbicidal rating CHEAL,[7],1.0
same,Preemergence herbicidal rating GLXMAW,[8]; rate 0.0313 kg/ha,0.0
same,Preemergence herbicidal rating GLXMAW,[8]; rate 0.0625 kg/ha,1.0
same,Preemergence herbicidal rating GLXMAW,[8]; rate 0.1250 kg/ha,3.0
same,Preemergence herbicidal rating GLXMAW,[8]; rate 0.2500 kg/ha,3.0
same,herbicidal rating ABUTH,[9]; rate 0.0158 kg/ha,9.0
same,herbicidal rating ABUTH,[9]; rate 0.0315 kg/ha,9.0
same,herbicidal rating ABUTH,[9]; rate 0.0630 kg/ha,9.0
same,Preemergence herbicidal rating GALAP,[10]; rate 0.0313 kg/ha,0.0
same,Preemergence herbicidal rating GALAP,[10]; rate 0.0625 kg/ha,0.0
same,Preemergence herbicidal rating GALAP,[10]; rate 0.1250 kg/ha,0.0
same,Preemergence herbicidal rating GALAP,[10]; rate 0.2500 kg/ha,0.0
same,Preemergence herbicidal rating AMBEL,[11]; rate 0.0313 kg/ha,0.0
same,Preemergence herbicidal rating AMBEL,[11]; rate 0.0625 kg/ha,0.0
same,Preemergence herbicidal rating AMBEL,[11]; rate 0.1250 kg/ha,0.0
same,Preemergence herbicidal rating AMBEL,[11]; rate 0.2500 kg/ha,0.0
same,ECHORC herbicidal effect rating,[12]; 0.0313 kg/ha,0.0
same,ECHORC herbicidal effect rating,[12]; 0.0625 kg/ha,3.0
same,ECHORC herbicidal effect rating,[12]; 0.1250 kg/ha,3.0
same,ECHORC herbicidal effect rating,[12]; 0.2500 kg/ha,3.0
same,herbicidal rating ZEAMX,[13]; rate 0.0158 kg/ha,4.5
same,herbicidal rating ZEAMX,[13]; rate 0.0315 kg/ha,4.5
same,herbicidal rating ZEAMX,[13]; rate 0.0630 kg/ha,5.0
same,Preemergence herbicidal rating IPOHE,[14]; rate 0.0313 kg/ha,0.0
same,Preemergence herbicidal rating IPOHE,[14]; rate 0.0625 kg/ha,0.0
same,Preemergence herbicidal rating IPOHE,[14]; rate 0.1250 kg/ha,0.0
same,Preemergence herbicidal rating IPOHE,[14]; rate 0.2500 kg/ha,0.0
same,CYPSE herbicidal effect rating,[15],0.0
same,herbicidal rating ORYSAT,[16]; rate 0.0158 kg/ha,2.0
same,herbicidal rating ORYSAT,[16]; rate 0.0315 kg/ha,2.0
same,herbicidal rating ORYSAT,[16]; rate 0.0630 kg/ha,2.5
